{"source": "paper PMC12163657", "about": "(ACS Omega, 2025)", "key": {"[1]": {"target": "T1, ESR1 WT (Homo sapiens, UniProt P03372)", "T1 sequence (P03372 1-595)": "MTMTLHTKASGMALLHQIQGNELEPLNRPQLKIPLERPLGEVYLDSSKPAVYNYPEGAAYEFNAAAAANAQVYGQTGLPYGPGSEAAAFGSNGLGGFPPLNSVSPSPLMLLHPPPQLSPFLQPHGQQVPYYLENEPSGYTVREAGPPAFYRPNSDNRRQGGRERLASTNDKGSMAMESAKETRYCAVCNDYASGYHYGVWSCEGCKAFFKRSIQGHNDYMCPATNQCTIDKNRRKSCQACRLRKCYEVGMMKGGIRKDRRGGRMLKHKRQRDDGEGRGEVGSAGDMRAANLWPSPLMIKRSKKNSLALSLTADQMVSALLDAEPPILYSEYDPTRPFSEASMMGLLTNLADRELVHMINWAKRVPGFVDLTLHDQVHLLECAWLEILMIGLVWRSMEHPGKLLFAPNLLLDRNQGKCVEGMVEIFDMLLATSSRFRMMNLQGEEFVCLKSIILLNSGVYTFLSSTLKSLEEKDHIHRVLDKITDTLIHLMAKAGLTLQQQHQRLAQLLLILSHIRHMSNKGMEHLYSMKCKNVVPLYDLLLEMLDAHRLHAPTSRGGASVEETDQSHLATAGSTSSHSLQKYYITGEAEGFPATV", "assay": "AP", "format": "cell-based"}, "[2]": {"assay": "Plasma protein binding, rapid equilibrium dialysis, rat plasma", "format": "in vitro ADME"}, "[3]": {"target": "hERG ion channels (Homo sapiens, UniProt Q12809)", "sequence (Q12809 whole entry)": "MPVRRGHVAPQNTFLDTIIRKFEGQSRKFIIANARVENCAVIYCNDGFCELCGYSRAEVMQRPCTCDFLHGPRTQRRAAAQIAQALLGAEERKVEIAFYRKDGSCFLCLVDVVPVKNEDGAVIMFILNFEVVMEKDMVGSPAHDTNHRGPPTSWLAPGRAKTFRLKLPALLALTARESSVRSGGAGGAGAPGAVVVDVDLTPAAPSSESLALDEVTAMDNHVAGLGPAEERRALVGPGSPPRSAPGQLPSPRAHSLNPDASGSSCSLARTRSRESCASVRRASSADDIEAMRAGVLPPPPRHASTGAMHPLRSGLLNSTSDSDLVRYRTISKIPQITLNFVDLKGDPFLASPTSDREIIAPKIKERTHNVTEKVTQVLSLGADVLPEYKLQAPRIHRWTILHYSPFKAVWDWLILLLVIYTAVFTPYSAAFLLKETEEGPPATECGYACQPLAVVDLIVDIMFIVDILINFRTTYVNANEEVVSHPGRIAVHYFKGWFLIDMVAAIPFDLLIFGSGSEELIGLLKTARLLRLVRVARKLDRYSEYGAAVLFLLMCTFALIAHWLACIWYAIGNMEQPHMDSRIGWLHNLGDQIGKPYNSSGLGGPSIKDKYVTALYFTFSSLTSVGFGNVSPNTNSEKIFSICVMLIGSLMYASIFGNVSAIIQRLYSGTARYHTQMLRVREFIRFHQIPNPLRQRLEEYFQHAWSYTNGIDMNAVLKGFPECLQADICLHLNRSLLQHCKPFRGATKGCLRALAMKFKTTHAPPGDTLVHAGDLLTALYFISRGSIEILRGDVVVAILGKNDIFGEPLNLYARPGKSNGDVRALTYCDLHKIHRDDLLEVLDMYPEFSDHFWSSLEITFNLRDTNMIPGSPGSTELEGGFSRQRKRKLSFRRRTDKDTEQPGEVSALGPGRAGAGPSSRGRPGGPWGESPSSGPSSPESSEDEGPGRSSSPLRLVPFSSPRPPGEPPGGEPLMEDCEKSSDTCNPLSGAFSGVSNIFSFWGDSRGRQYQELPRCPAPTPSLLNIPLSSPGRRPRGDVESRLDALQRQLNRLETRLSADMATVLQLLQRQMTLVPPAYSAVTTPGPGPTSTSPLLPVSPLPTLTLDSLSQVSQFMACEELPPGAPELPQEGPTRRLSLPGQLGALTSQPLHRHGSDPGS", "assay": "hERG patch clamp assay", "format": "cell-based", "conditions": "at 30 μM"}, "[4]": {"test_system": "ST941/C cells", "assay": "ST941/C cell proliferation", "format": "cell-based", "conditions": "read-out: ST941/C cell prolif. pIC50 (converted)"}, "[5]": {"assay": "Plasma protein binding, rapid equilibrium dialysis, mouse plasma", "format": "in vitro ADME", "conditions": "undiluted plasma"}, "[6]": {"target": "T2, PR (Homo sapiens, UniProt P06401)", "T2 sequence (P06401 1-933)": "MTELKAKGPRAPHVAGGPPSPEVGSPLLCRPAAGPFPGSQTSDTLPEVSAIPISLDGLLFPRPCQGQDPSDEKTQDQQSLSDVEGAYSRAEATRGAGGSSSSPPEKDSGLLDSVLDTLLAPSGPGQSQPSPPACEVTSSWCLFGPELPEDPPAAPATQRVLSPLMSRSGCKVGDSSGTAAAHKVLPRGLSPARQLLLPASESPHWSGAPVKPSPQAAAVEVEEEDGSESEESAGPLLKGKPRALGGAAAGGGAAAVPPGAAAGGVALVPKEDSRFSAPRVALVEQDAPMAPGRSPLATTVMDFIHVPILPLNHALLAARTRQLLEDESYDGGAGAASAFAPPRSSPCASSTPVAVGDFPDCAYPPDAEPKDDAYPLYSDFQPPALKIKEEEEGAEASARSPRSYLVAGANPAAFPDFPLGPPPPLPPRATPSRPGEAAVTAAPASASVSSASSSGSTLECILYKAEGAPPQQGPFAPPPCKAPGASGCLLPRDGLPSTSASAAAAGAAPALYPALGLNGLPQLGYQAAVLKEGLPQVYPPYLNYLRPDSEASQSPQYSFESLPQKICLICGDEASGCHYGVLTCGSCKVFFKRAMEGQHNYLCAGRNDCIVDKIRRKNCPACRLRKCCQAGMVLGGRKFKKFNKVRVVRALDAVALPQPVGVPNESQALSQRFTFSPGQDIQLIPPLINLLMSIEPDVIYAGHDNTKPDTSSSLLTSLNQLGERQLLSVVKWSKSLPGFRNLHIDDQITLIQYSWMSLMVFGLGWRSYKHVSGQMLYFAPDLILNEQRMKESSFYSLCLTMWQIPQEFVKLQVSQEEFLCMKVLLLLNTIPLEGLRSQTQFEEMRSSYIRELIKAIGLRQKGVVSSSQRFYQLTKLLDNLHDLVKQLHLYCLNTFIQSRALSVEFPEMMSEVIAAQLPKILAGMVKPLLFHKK", "assay": "Reporter assay of gene transcription activity, PR", "format": "cell-based"}, "[7]": {"test_system": "CAMA-1 ESR1 Asp538Gly cells", "assay": "CAMA-1 cell proliferation, ESR1 Asp538Gly", "format": "cell-based", "conditions": "Homo sapiens, CAMA-1, read-out: CAMA-1 cell prolif. pIC50 (converted)"}, "[8]": {"test_system": "E2-induced uterine wet weight", "assay": "Ovariectomized mouse uterine wet weight study", "format": "in vivo", "conditions": "dose giving 50% inhibition of E2-induced uterine wet weight; oral, once daily, 3 days"}, "[9]": {"target": "T3, ERα (Homo sapiens, UniProt P03372)", "T3 sequence (P03372 1-595)": "T1 sequence (P03372 1-595)", "assay": "Alkaline phosphatase", "format": "cell-based"}, "[10]": {"test_system": "CAMA-1 ESR1 WT cells", "assay": "CAMA-1 cell proliferation, ESR1 WT", "format": "cell-based", "conditions": "Homo sapiens, CAMA-1, read-out: CAMA-1 cell prolif. pIC50 (converted)"}, "[11]": {"assay": "In vivo mouse oral single dose PK"}, "[12]": {"assay": "Plasma protein binding, rapid equilibrium dialysis, dog plasma", "format": "in vitro ADME"}, "[13]": {"assay": "Single-dose pharmacokinetics, monkey", "format": "in vivo", "conditions": "serum"}}, "note": "pIC50: −log10 of the molar value."}
{"compound": "CCCN1CC(Oc2ccc([C@@H]3c4[nH]c5ccccc5c4C[C@@H](C)N3CC(C)(C)F)cc2)C1", "note": "[compound 21, (1R,3R)-2-(2-Fluoro-2-methylpropyl)-3-methyl-1-(4-((1-propylazetidin-3-yl)oxy)phenyl)-2,3,4,9-tetrahydro-1H-pyrido[3,4-b]indole]", "values": [{"measurement": "pIC50", "setting": "[1]", "value": 8.60}, {"measurement": "Plasma free drug percentage", "setting": "[2]", "value": 0.24, "unit": "%"}, {"measurement": "hERG inhibition", "setting": "[3]", "value": "did not inhibit"}, {"measurement": "IC50", "setting": "[4]", "value": 31.6, "unit": "nM"}, {"measurement": "fraction unbound at 4 h, 1 µM", "setting": "[5]", "value": 0.0006}, {"measurement": "pIC50", "setting": "[6]", "value": "< 5.50"}, {"measurement": "agonist cross-reactivity on PR", "setting": "[6]; in words", "value": "no agonist cross-reactivity"}, {"measurement": "PR pIC50, antag. mode", "setting": "[6]; reporter assay, antag. mode", "value": "<5.5"}, {"measurement": "IC50", "setting": "[7]", "value": 6.31, "unit": "nM"}, {"measurement": "uterine wet weight ID50", "setting": "[8]", "value": "<1", "unit": "µg/kg"}, {"measurement": "pIC50", "setting": "[9]", "value": 8.50}, {"measurement": "IC50", "setting": "[10]", "value": 1.58, "unit": "nM"}, {"measurement": "total AUCinf", "setting": "[11]; oral single dose", "value": 2477, "unit": "ng·h/mL"}, {"measurement": "free AUCinf", "setting": "[11]; oral single dose, estimated based on the percent free fraction", "value": 1.5, "unit": "ng·h/mL"}, {"measurement": "Cmax", "setting": "[11]; plasma, po", "value": 121, "unit": "ng/mL"}, {"measurement": "half-life", "setting": "[11]; plasma, po", "value": 18, "unit": "h"}, {"measurement": "Plasma free drug percentage", "setting": "[12]", "value": 0.04, "unit": "%"}, {"measurement": "AUC", "setting": "[13]; iv, 3 mg/kg", "value": 3420, "unit": "ng·h/mL"}, {"measurement": "Cmax", "setting": "[13]; iv, 3 mg/kg", "value": 651, "unit": "ng/mL"}, {"measurement": "Vd", "setting": "[13]; iv, 3 mg/kg", "value": 49, "unit": "L/kg"}, {"measurement": "clearance", "setting": "[13]; iv, 3 mg/kg", "value": 13.3, "unit": "mL/min/kg"}, {"measurement": "half-life", "setting": "[13]; iv, 3 mg/kg", "value": 42, "unit": "h"}, {"measurement": "AUC", "setting": "[13]; po, 10 mg/kg", "value": 5090, "unit": "ng·h/mL"}, {"measurement": "Cmax", "setting": "[13]; po, 10 mg/kg", "value": 170, "unit": "ng/mL"}, {"measurement": "Tmax", "setting": "[13]; po, 10 mg/kg", "value": 8, "unit": "h"}, {"measurement": "bioavailability", "setting": "[13]; po, 10 mg/kg", "value": 44.4, "unit": "%"}, {"measurement": "half-life", "setting": "[13]; po, 10 mg/kg", "value": 34, "unit": "h"}]}
